Measured values reported in patent publication US20070009437A1, “Intracellular trapping of radionuclides by enzyme-mediated reduction” (priority 2003, published 2007).

How the values were obtained:
[1] = tested on: DsbC-HydB fusion (pETDuet/DsbC-HydB alone) in E. coli BL21(DE3) Star; assay: Tc99m O4- reduction assay, bacteria with pETDuet/DsbC-HydB alone; type: cell-based, Desulfovibrio desulfuricans; details: for Counts Per Minute, cell pellet, FB: 15 mCi, aerobic
Source text: (§1) Bacterial expression vectors were designed following standard molecular biology techniques. D. desulfuricans hydrogenase genes, Hyd A and Hyd B were PCR amplified using primers incorporated with unique restriction sites at the ends. The genes were inserted into pET-Duet1 (Novagen) vector under T7 RNA polymerase driven promoter through sequential restriction digestion and ligation. Periplasmic signal sequences were extracted from vectors pET-39b and pET-40b (Novagen) and ligated in-frame with start codon deficient Hydrogenase genes. Mammalian expression vectors were designed with mitochondrial signal sequences from pCMV/myc/mito, fused in frame by PCR amplification and ligation with both HydA and HydB genes. Additionally, the myc epitope was added in-frame at the C-terminus to facilitate subcellular localization and immunoprecipations.
(§2) E. coli BL21(DE3) Star (Invitrogen) was transformed with various constructs and grown on the appropriate selective media agars. In case of periplasmic fusion hydrogenases, dual co-transformation was accomplished using antibiotic selection markers, ampicillin and chloramphenicol. Transformed cells were grown at 37° C. in a standard laboratory shaker under aerobic conditions to an optical density at 600 nm (O.D.600) of 0.6 and then induced with 1 mM IPTG under a standard T7 promoter induction protocol. One ml aliquots of cells were collected at 0, 1, 2, and 3 hour time points following induction and mRNA was extracted using a bacterial mRNA extraction mini kit (Qiagen). 100 ng of the mRNA samples was DNAse treated (Invitrogen) according to the manufacturer's protocol. RNA quality was then analyzed using an Agilent 2100 Bioanalyzer, prokaryotic total RNA nano-chip. RT-PCR reactions were performed using the internal specific primers for HydA, Forward: 5′-[…] (SEQ ID NO:8); Reverse: 5′-[…] (SEQ ID NO:9) and Hyd B, Forward: 5′-[…] (SEQ ID NO:10), Reverse 5′-[…] (SEQ ID NO:11) and one step RT-PCR kit (Qiagen).
(§3) Tc99m O4—reduction assays were performed as follows: Bacterial cultures were grown to an O.D.600 of 0.6 in a simple rotary shaker under aerobic conditions. HydA and HydB genes were induced with 1 mM IPTG in the presence of 15 mCi of 99mTc Pertechnetate and ten ml aliquots of bacterial cultures were collected at 0, 1, 2, and 3 hr time points. The cells were spun down at 3500 rpm for 15 min, washed twice with 5 ml phosphate buffered saline (PBS) and the supernatant was collected and saved for later analysis. Control bacteria transformed with Duet vectors only were treated as controls. Total counts in the total cell pellet, 100 μl of media supernatant, and 1 ml of each wash, were then assayed using a gamma counter. Ten microliters of 99mTc pertechnetate was assayed to provide internal control between experiments.
(§4) In FIG. 12, the amount of radioactivity recorded in counts per minute was divided by the total number of counts expected per 10 ml of culture. The experimental values were determined by subtracting the control bacterial normalized CPM from the normalized CPM from the hydrogenase vector(s) transformed bacteria. The values obtained were therefore normalized counts per minute for the different cell lines.
(§5) However, this increase was negligible when compared to cells containing both HydA and HydB in separate (individual) Dsb fusion vector constructs.

[2] = tested on: E. coli BL21(DE3) Star transformed with pET-Duet + pACYCDuet (control); assay: Tc99m O4- reduction assay, control bacteria with Duet vectors only; type: cell-based, Escherichia coli; details: 15 mCi, aerobic
Method: as §2, §3, §4

[3] = tested on: T. vaginalis (ATCC No. 30001); assay: Trapping of Tc99m pertechnetate in Trichomonas vaginalis (intracellular radioactivity, gamma counter); type: cell-based; details: 2 μCi, 37° C., 2×10^6 cells per tube, washed pellet
Method: T. vaginalis (ATCC No. 30001) was cultured in ATCC LYI entamoeba medium (ATCC No. PRA-2154) at 37° C. in test tubes to a titer of 2×10^6 cells per tube. Three test tubes were included in each group. T. vaginalis cells were incubated at 37° C. for a period of time after inoculation of 2 μci of Technetium 99m pertechnetate in each test tube. At end of incubation, the cells were harvested by centrifugation at […], for 10 minutes. The cellular pellet was washed three times with PBS to remove extra-cellular radioactivity. Intracellular radioactivity of the cells was counted with a gamma counter.

[4] = tested on: DsbA-HydA + DsbC-HydB (pACYC-DsbA-HydA + pETDuet/DsbC-HydB) in E. coli BL21(DE3) Star; assay: Tc99m O4- reduction assay, bacteria with both periplasmic Dsb fusion vectors; type: cell-based, Desulfovibrio desulfuricans; details: for Counts Per Minute, cell pellet, DSB FUSIONS: 15 mCi, aerobic
Source text: as §1, §2, §3, §4, §5

[5] = tested on: DsbA-HydA fusion (pACYC-DsbA-HydA alone) in E. coli BL21(DE3) Star; assay: Tc99m O4- reduction assay, bacteria with pACYC-DsbA-HydA alone; type: cell-based, Desulfovibrio desulfuricans; details: 15 mCi, aerobic
Source text: as §1, §2
Tc99m O4—reduction assays were performed as follows: Bacterial cultures were grown to an O.D.600 of 0.6 in a simple rotary shaker under aerobic conditions. HydA and HydB genes were induced with 1 mM IPTG in the presence of 15 mCi of 99mTc Pertechnetate and ten ml aliquots of bacterial cultures were collected at 0, 1, 2, and 3 hr time points. The cells were spun down at 3500 rpm for 15 min, washed twice with 5 ml phosphate buffered saline (PBS) and the supernatant was collected and saved for later analysis. […]
as §4, with “The values obtained were therefore normalized counts per minute for the different cell lines.” left out

[6] = tested on: D. desulfuricans hydrogenase HydA/HydB (pETDuet/HydA/HydB) in E. coli BL21(DE3) Star; assay: Tc99m O4- reduction assay, bacteria with pETDuet/HydA/HydB; type: cell-based, Desulfovibrio desulfuricans; details: for Counts Per Minute, cell pellet, HYDA/B: 15 mCi, aerobic
Source text: as §1, §2, §3, §4

[O]=[99Tc](=[O])(=[O])[O-] [Technetium 99m pertechnetate]
Counts Per Minute, cell pellet, FB ([1]; 0 hr after 1 mM IPTG induction): 4643 cpm | Counts Per Minute, cell pellet, FB ([1]; 1 hr after 1 mM IPTG induction): 40064 cpm | Counts Per Minute, cell pellet, FB ([1]; 2 hr after 1 mM IPTG induction): 55201 cpm | Counts Per Minute, cell pellet, FB ([1]; 3 hr after 1 mM IPTG induction): 77462 cpm | entrapment of radionuclide by cells ([1]; Hyd B-Dsb fusion alone vs both fusion hydrogenase products together): higher than that of both fusion hydrogenase products together | Counts Per Minute, cell pellet, D + P (control) ([2]; 0 hr after 1 mM IPTG induction): 2777 cpm | Counts Per Minute, cell pellet, D + P (control) ([2]; 1 hr after 1 mM IPTG induction): 6939 cpm | Counts Per Minute, cell pellet, D + P (control) ([2]; 2 hr after 1 mM IPTG induction): 10045 cpm | Counts Per Minute, cell pellet, D + P (control) ([2]; 3 hr after 1 mM IPTG induction): 11944 cpm | RADIOACTIVITY (dpm) in T. vaginalis ([3]; incubation 30 minutes): 24904 dpm | RADIOACTIVITY (dpm) in T. vaginalis ([3]; incubation 45 minutes): 45127 dpm | RADIOACTIVITY (dpm) in T. vaginalis ([3]; incubation 12 hours): 1915843 dpm | Counts Per Minute, cell pellet, DSB FUSIONS ([4]; 0 hr after 1 mM IPTG induction): 4185 cpm | Counts Per Minute, cell pellet, DSB FUSIONS ([4]; 1 hr after 1 mM IPTG induction): 38129 cpm | Counts Per Minute, cell pellet, DSB FUSIONS ([4]; 2 hr after 1 mM IPTG induction): 80021 cpm | Counts Per Minute, cell pellet, DSB FUSIONS ([4]; 3 hr after 1 mM IPTG induction): 56611 cpm | 99mTc association with the bacteria ([4]; DsbA and DsbC ligated in fusion to Hyd A and Hyd B): increased 99mTc association with the bacteria | Counts Per Minute, cell pellet, FA ([5]; 0 hr after 1 mM IPTG induction): 7074 cpm | Counts Per Minute, cell pellet, FA ([5]; 1 hr after 1 mM IPTG induction): 8503 cpm | Counts Per Minute, cell pellet, FA ([5]; 2 hr after 1 mM IPTG induction): 15323 cpm | Counts Per Minute, cell pellet, FA ([5]; 3 hr after 1 mM IPTG induction): 23935 cpm | Counts Per Minute, cell pellet, HYDA/B ([6]; 0 hr after 1 mM IPTG induction): 2074 cpm | Counts Per Minute, cell pellet, HYDA/B ([6]; 1 hr after 1 mM IPTG induction): 5543 cpm | Counts Per Minute, cell pellet, HYDA/B ([6]; 2 hr after 1 mM IPTG induction): 8031 cpm | Counts Per Minute, cell pellet, HYDA/B ([6]; 3 hr after 1 mM IPTG induction): 12339 cpm | trapping in vitro as compared to control cells ([6]; bacteria overexpressing HydA and HydB genes): significantly higher trapping | radioactivity within cells relative to control cells ([6]; pETDuet1/HydA/HydB vector vs pET-Duet+PAcYCDuet vector): noticeable increase in radioactivity
